System: expression of luciferase (firefly luciferase mRNA) in liver
Experiment: In vivo luciferase imaging (IVIS) of liver after tail vein administration of Fluc mRNA/LNPs
Parameters: species or system Balb/c mice
Conditions: 6 hours; for Average intensity (comparison with SM102 and MC3): N/P 7.5, tail vein, liver
Experimental: In order to achieve mRNA delivery at animal level, the inventors prepared mRNA/lipid nanoparticles using the method as follows: formulating each of the ionizable lipid compounds (YX8, YX17, YX31, YX27, YX28, YX35, YX29 or YX33) prepared in Example 1, cholesterol, DOPE and DMG-PEG2000 into a 10 mg/mL ethanol solution. Taking YX27 as an example, when preparing an mRNA/LNP complex in a single time, YX27 solution (1.6 mg) was measured and mixed with cholesterol, DOPE and DMG-PEG2000 according to a molar ratio of 50:38.5:10:1.5, and the total volume of the solution was allowed to reach 450 μl by supplementing ethanol. 150 μg of firefly luciferase mRNAs were taken and added to a sodium acetate buffer (50 mM, pH=5.2), and the total volume of the solution was 1350 μl. The ionizable lipid compound solution and the mRNA solution were mixed by introducing into a microfluidic machine (speed: 0.2 mL/min of ethanol solution, and 0.6 mL/min of sodium acetate buffer solution) to prepare lipid nanoparticles encapsulating mRNAs, which were dialyzed against PBS buffer for 2 hours, and the obtained samples were directly used for animal experiments. The ratio of the ionizable lipid compound YX27 to mRNAs was calculated according to the molar ratio (N/P) of the nitrogen atoms in YX27 to the phosphorus atoms in the phosphate skeleton of the mRNAs. In this example, N/P was 7.5.
In order to verify the delivery effect of the above Fluc mRNA/LNP preparation, YX27 LNPs encapsulating 150 μg/kg Fluc mRNAs were injected into 6-8 week-old female Balb/c mice by administration via tail vein, or YX27 LNPs encapsulating 250 μg/kg Fluc mRNAs were injected into the hind legs of mice by intramuscular administration; after 6 hours, 200 μl of D-Lucifin (with a mass fraction of 30%) was injected by intraperitoneal administration, and the expression and intensity of luciferase in the whole body, liver and muscle administration sites were detected by PerkinElmer IVIS Lumina III small animal in vivo optical imaging system. In order to study the effect of the hydrophobic chain length of lipid compounds on mRNA delivery efficiency, LNP samples encapsulating Fluc mRNAs were prepared using lipid compounds YX9, YX8, YX17 and YX31 respectively according to YX27 experimental operation, and the efficiency of luciferase expression in mice was studied.
In order to study the effect of the mixing ratio (N/P ratio) of ionizable lipids and mRNAs as the LNP components on the mRNA delivery efficiency, mixed samples of YX27 and luciferase mRNAs at N/P ratios of 7.5 and 9 were prepared according to the operation steps of Example 2, the mRNA delivery and the expression and intensity of luciferase in the whole body, liver and other sites were studied by administration via tail vein (the delivery results are shown in FIG. 3 and the table below).
LNPs containing SM102 or MC3 as the cationic lipid and luciferase mRNAs at an N/P ratio of 7.5 were prepared according to the operation steps of Example 2, in which the dose of Fluc mRNAs was 25 μg/kg, 50 μg/kg or 150 μg/kg respectively; and then the mRNA delivery by the prepared LNPs and the expression and intensity of luciferase in the whole body, liver and other sites were studied by administration via tail vein. The delivery results are shown in FIG. 4A, FIG. 4B and the table below.
In order to verify the expression efficiency of luciferase after administration of Fluc mRNA/LNPs as a function of time, YX27 solution encapsulating 150 μg/kg of Fluc mRNAs was injected into 6-8 week-old female Balb/c mice by administration via tail vein; 2 h, 4 h, 6 h, 18 h and 24 h after administration respectively, 200 μl of D-Lucifin (with a mass fraction of 30%) was injected by intraperitoneal administration, and the expression and intensity of luciferase in the whole body and liver site were detected by PerkinElmer IVIS Lumina III small animal in vivo optical imaging system. […]

| SMILES | Average intensity (comparison with SM102 and MC3) (Fluc mRNA dose 25 μg/kg) [p/s] | Average intensity (comparison with SM102 and MC3) (Fluc mRNA dose 50 μg/kg) [p/s] | Average intensity (comparison with SM102 and MC3) (Fluc mRNA dose 150 μg/kg) [p/s] | Average intensity 50 μg/kg (lipids with different structures) (Fluc mRNA 50 μg/kg, N/P 7.5, liver tissue) [p/s] | Average intensity 150 μg/kg (lipids with different structures) (Fluc mRNA 150 μg/kg, N/P 7.5, liver tissue) [p/s] |
| --- | --- | --- | --- | --- | --- |
| CCCCC/C=C\C/C=C\CCCCCCCCC(CCCCCCCC/C=C\C/C=C\CCCCC)OC(=O)CCCN(C)C [MC3, D-Lin-MC3-DMA] | 4.28E+08 | 8.40E+08 | 7.16E+09 | – | – |
| CCCCCCCCCCCOC(=O)CCCCCN(CCO)CCCCCCCC(=O)OC(CCCCCCCC)CCCCCCCC [SM102] | 1.20E+09 | 2.02E+09 | 5.65E+09 | 2.02E+09 | 5.65E+09 |
